This is an account of results in publication PMC11547375, “Peptide Dimerization as a Strategy for the Development of Antileishmanial Compounds” (Molecules, 2024).

The subject of data set [1] is L. mexicana amastigotes. Description: microbe, parasite or virus in culture. Format: cell-based, Leishmania mexicana. As to conditions: ± standard deviation, SD. On the procedure:
(§1) Macrophages were sourced from the peritoneal cavity of Swiss mice using the methodology outlined by de Almeida et al.. Anti-promastigote and anti-amastigote assays of L. mexicana and L. amazonensis and their cytotoxic activity were conducted as previously described. […] Cytotoxicity for the host cells and the protozoan species was compared and expressed as the selectivity index (SI), calculated as the ratio of the CC50 for macrophages to the IC50 for the protozoan species.

For data set [2] the following is noted: POPC–POPS–Erg (16:3:1) LUVs. On the procedure: To evaluate the effect of monomeric and dimeric peptides on the lipid membrane and relate it to the mechanism of action, vesicle permeabilization studies were carried out for evaluating the possible mechanisms on membrane. The leakage assays were carried out with carboxyfluorescein (CF) internalized in the mimetic membranes. The vesicles of POPC–Chol (4:1) and POPC–POPS (phosphatidylserine)–ergosterol (16:3:1) were employed. These mimetic membranes were designed considering the compositions of phospholipids and steroids in the host membrane and in the Leishmania membrane, respectively. The constitution of the cell membrane of Leishmania varies according to the morphology of the parasite and its stage of development, but is more negative than the cell membranes of mammals, which allow for cationic AMPs to bind more easily. Our studies were based on the membrane of the promastigote form, which is characterized by the presence of mainly phosphatidylcholine, phosphatidylethanolamine, phosphatidylinositol, phosphatidylserine, and ergosterol, in addition to diglycerides and glycolipids containing mannose and galactose. In the amastigote form of Leishmania, there is a higher concentration of fatty acids and cholesterol, while triglycerides and ergosterol decrease during the transition from promastigotes to amastigotes. In addition, the main phospholipids found are sphingomyelin and phosphatidylserine, with lower proportions of phosphatidylinositol and lysophosphatidylethanolamine.
Large unilamellar vesicles (LUVs) composed of POPC (1-palmitoyl-2-oleoyl-sn-glycero-3-phosphatidylcholine) and cholesterol (Chol) (4:1), or POPC, POPS (1-palmitoyl-2-oleoyl-sn-glycero-3-serine), and ergosterol (Erg) (16:3:1) were prepared according to the methods described by Lorenzón et al.. […] We employed a Hitachi U-2000 spectrophotometer (TSHa) (Hitachi, Tokyo, Japan) or a Fluorolog-3 FL3-122 spectrofluorometer (Horiba Jobin Yvon, Glasgow, UK) ((TSHa)2K) for analyses.

Data set [3] deals with L. amazonensis promastigotes. As to conditions: read-out: IC50 Promastigote with active fetal bovine serum, LIT medium with active (not heat-inactivated) fetal bovine serum, ± standard deviation, SD. On the procedure: Therefore, stability studies were carried out with these molecules in the presence of the Leishmania parasite in its promastigote form, with active fetal bovine serum added to the culture medium. […] Assays were performed using the TSHa and (TSHa)2K peptides.
Peptide stability was investigated using anti-promastigote assays (as described by Costa et al. 2023 [58]) with L. amazonensis and LIT culture media with fetal bovine serum.

The test system of data set [4] is L. amazonensis amastigotes. Description: microbe, parasite or virus in culture. Format: cell-based, Leishmania amazonensis. To be noted: read-out: IC50 Amastigote. On the procedure:
as §1

The test system of data set [5] is peritoneal macrophages. Description: Cytotoxicity in peritoneal macrophages. Format: cell-based. As to conditions: peritoneal macrophages of Swiss mice. On the procedure:
(§2) The L. amazonensis promastigotes (MPRO/BR/1972/M1841-LV-79) were grown in LIT culture medium, while the L. mexicana promastigotes (MNYC/BZ/62/M379) were cultivated in Schneider’s medium (Sigma-Aldrich, St. Louis, MO, USA), supplemented with 10% heat-inactivated fetal bovine serum (FBS; Gibco/Invitrogen, Waltham, MA, USA) at 28 °C until reaching the mid-log phase of growth. Macrophages were sourced from the peritoneal cavity of Swiss mice using the methodology outlined by de Almeida et al.. Anti-promastigote and anti-amastigote assays of L. mexicana and L. amazonensis and their cytotoxic activity were conducted as previously described. IC50 is the concentration capable of killing 50% of the parasites. The drug concentration that inhibited 50% of cell growth was denoted as the 50% cytotoxic concentration (CC50). Cytotoxicity for the host cells and the protozoan species was compared and expressed as the selectivity index (SI), calculated as the ratio of the CC50 for macrophages to the IC50 for the protozoan species.

The subject of data set [6] is L. amazonensis promastigotes. Nature of the data set: microbe, parasite or virus in culture. Format: cell-based, Leishmania amazonensis. As to conditions: read-out: IC50 Promastigote. On the procedure: as §2
Data set [7] deals with LmCPB2.8ΔCTE (CPB) (Leishmania mexicana, UniProt P36400). Description: Cysteine protease (CPB) enzyme inhibition assay. Format: biochemical. On the procedure: The CPB inhibition experiments were performed as described previously by Moreira et al.. The results are expressed as mean ± standard deviation of two independent replicates as the half maximal CPB enzyme inhibitory concentration (IC50-CPB) using Bioestat 5.0 software.

In data set [8] the test system is L. mexicana promastigotes. Nature of the data set: microbe, parasite or virus in culture. Format: cell-based, Leishmania mexicana. As to conditions: ± standard deviation, SD, read-out: IC50 Promastigote. On the procedure: as §2

Where two headings read alike, the source gives them in different places. No end group written: not given here.

Chain of LmCPB2.8ΔCTE (CPB) (P36400 126-343, stated change not applied): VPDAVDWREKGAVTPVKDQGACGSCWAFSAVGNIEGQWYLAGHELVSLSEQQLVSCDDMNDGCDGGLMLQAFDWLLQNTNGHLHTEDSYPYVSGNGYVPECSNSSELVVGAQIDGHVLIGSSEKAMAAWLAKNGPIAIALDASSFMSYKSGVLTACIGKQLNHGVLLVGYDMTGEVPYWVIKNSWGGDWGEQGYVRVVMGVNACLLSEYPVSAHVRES

For the substance FLSGIVGMLGKLF-NH2 [TSHa], the IC50 amounted to 5 ± 0.05 µM in data set [1] (24 h of treatment, read-out: IC50 Amastigote 24 h of Treatment); 8.1 ± 0.45 µM in data set [1] (48 h of treatment, read-out: IC50 Amastigote 48 h of Treatment); 20 ± 2.15 µM in data set [3]; 6.8 ± 2.82 µM in data set [4]; 8 ± 0.1 µM in data set [6]; 9.2 ± 2.2 µM in data set [7] (mean ± SD of two independent replicates, SD). Moreover, the IC50 in data set [8] came to 6.3 ± 0.85 µM. Besides, the CF release entry in data set [2] (peptide 1 µmol L^−1, fluorescence) is “around 70%”; in data set [2] (peptide 5 µmol L^−1, fluorescence), about 85%. Moreover, the “CC50 Peritoneal Macrophages” value in data set [5] (Table 1, ± standard deviation, SD) was over 1000 ± 0.01 µM. Moreover, in data set [5] (Table 2), the “CC50 Peritoneal Macrophage” value was over 1000 ± 1.8 µM. For the same substance, the “Inhibitory Activity at 20 μmol L^−1” value in data set [7] (20 μmol L^−1, mean ± SD of two independent replicates, SD) came to 94.22 ± 1.54 %. For the same substance, the inhibition at 20 µM in data set [7] (20 μmol L^−1, mean ± SD of two independent replicates, read-out: Inhibitory Activity at 20 μmol L^−1) is over 90%.

The IC50 is the midpoint of a concentration-inhibition curve.
